This is an account of results in ChEMBL document CHEMBL1146539, “Homopseudopteroxazole, a new antimycobacterial diterpene alkaloid from Pseudopterogorgia elisabethae” (2003).

Molecules are shown by their SMILES. Values after ≈ are worked out from the molar mass of the structure shown.

The subject of the experiment is Mycobacterium tuberculosis. Description: Antimycobacterial activity against Mycobacterium tuberculosis H37Rv. Type of experiment: functional. To be noted: for MIC: Mycobacterium tuberculosis, H37Rv.

Usually MIC stands for the least concentration at which growth counts as inhibited. A higher MIC goes with a less susceptible organism.

`CC(C)=C[C@@H]1C[C@H](C)[C@H]2CC[C@H](C)c3c2c1c(C)c1ncoc31` [PSEUDOPTEROXAZOLE]: the “inhibition (INH)” value is recorded as 97% and inhibition of growth (MIC) required 12.5 µg/mL (≈ 40.4 µM).

As to `CC(C)=CCC[C@H](C)[C@H]1CC[C@H](C)c2c1cc(C)c1ncoc21`, the “inhibition (INH)” value is given as 66% and the MIC stood at 12.5 µg/mL (≈ 40.1 µM).

Regarding `CCCCCc1nc2c(C)c3c4c(c2o1)[C@@H](C)CC[C@@H]4[C@@H](C)C[C@H]3C=C(C)C` [HOMOPSEUDOPTEROXAZOLE], the “inhibition (INH)” value was 80% and inhibition of growth (MIC) required 12.5 µg/mL (≈ 32.9 µM).
